Measured values taken from publication PMC10877564, “Activity of Gut-Derived Nisin-like Lantibiotics against Human Gut Pathogens and Commensals” (ACS Chemical Biology, 2024).
No end group written: not given here.

What was measured:
[1] = tested on: panel of Gram-positive human pathogens (VRE, MRSA, MRSE, L. monocytogenes, C. difficile); assay: MIC assay against the panel of Gram-positive human pathogens; format: cell-based; details: pathogen panel, Figure 3A-E; anaerobic
Excerpt: Next, we set out to test the antimicrobial activities of these purified lantibiotics against a panel of Gram-positive bacteria that are representatives of some of the most prevalent human pathogens: VRE, Methicillin-resistant S. aureus USA300 (MRSA), Methicillin-resistant Staphylococcus epidermidis SK135 (MRSE), Listeria monocytogenes 10403S, and Clostridioides difficile VPI10463. We examined the growth of bacteria in a 96-well plate under a concentration gradient of lantibiotics under anaerobic conditions (Figure S2B).
(§1) Elution Buffer (4 M guanidine hydrochloride, 20 mM Tris HCl, pH 7.5 at 25 °C, 100 mM NaCl, 1 M imidazole). Peptides eluted from the Ni resin were concentrated and desalted using 3 kDa Amicon filters (Millipore). For leader peptide removal, the peptide (1:20 trypsin to peptide) was incubated with the trypsin protease in 50 mM Tris-HCl, pH 8 overnight at 37 °C. Lastly, the core peptides were further purified with HPLC using an Agilent 1200 instrument (Agilent) as specified in general methods. About 1.5 mg recombinant peptide was obtained after HPLC purification per […]
Purification of blauticin from Blautia producta SCSK
Stationary anaerobic culture of BPSCSK was inoculated 1:100 to 1 L BHIS. Culture was incubated on a heating plate at 37 °C with 220 rpm stirring for 2 days in an anaerobic chamber. Bacteria were pelleted with 15,000 x g centrifugation for 15 min. The supernatant was acidified with acetic acid to pH 5.5 and filtered through a 0.22 um filter. Filtered supernatant was loaded onto a HiTrap SP HP column using an AKTA Pure FPLC, which was eluted sequentially with 3 CV of distilled water, 200 mM NaCl, 400 mM NaCl, 600 mM NaCl, 800 mM NaCl, and 1 M NaCl. The 800 mM NaCl eluate was concentrated with a 3 kDa Amicon filter, followed by dialyzation with DPBS using a 3 kDa Amicon filter. Purification of blauticin was confirmed by SDS-PAGE, VRE inhibition in vitro assay, and MALDI-TOF MS. […]
(§2) For broth cultures, isolates were grown in pre-reduced BHI supplemented with 5 g/L yeast extract (Difco, BD) and 0.1% L-cysteine under anaerobic condition.
(§3) Minimal Inhibition Concentration (MIC) assay
(§4) All MIC assays were performed under anaerobic condition. Stationary bacterial culture in BHIS (BHI supplemented with 5 g/L yeast extract and 0.1% L-cysteine) were inoculated 1:100 to wells containing 200 µL BHIS in U-bottom 96-well plates. Lantibiotics were dissolved in DPBS, and concentrations were determined by BCA assay (Pierce) according to the manufacturer’s protocol.
Lantibiotic stock solutions were added to wells to reach desired final concentration, with 3-fold serial dilution across rows to create concentration gradients. Bacteria-inoculated wells without lantibiotics served as control. […]

[2] = Liposome permeabilization assay, liposomes without lipid II; format: biochemical; details: 375 nM lantibiotic; DOPC, 50 µM phospholipid; pyranine fluorescence, 30 min; three replicates; Figure S7
Experimental: (§5) To further investigate the mechanisms of action of these nisin-like lantibiotics, we performed liposome permeabilization assays using liposomes with or without lipid II (Figure S7).
(§6) Liposome Permeabilization Assay
(§7) To prepare pyranine encapsulated liposomes, DOPC (25 mg/mL in CHCl3, purchased from Avanti) was deposited into a vial and mixed with lipid II (dissolved in 2:1 CHCl3: MeOH, prepared chemoenzymatically).6 The solvent was removed using a stream of N2 leaving a thin film. Residual solvent was removed by storing it overnight in a vacuum desiccator. The film was rehydrated in buffer (5 mM Tricine, 5 mM MES, 5 mM NaCl, 1 mM pyranine pH = 6.0) and suspended with vortexing. The suspension was subjected to freeze-thaw three times before extrusion through a […] polycarbonate filter (21 passes). Excess pyranine was removed by passing the liposome solution through a Sephadex G-50 column previously equilibrated with buffer (5 mM Tricine, 5 mM MES, 5 mM NaCl, pH = 6.0). The eluted liposome solution containing the highest concentration of encapsulated pyranine (as determined visually with a UV lamp) was immediately placed on ice. Phospholipid concentration was determined by NMR as described previously.7 To measure liposome permeabilization, to a 96 well black polystyrene plate was added buffer (5 mM Tricine, 5 mM MES, 5 mM NaCl, pH = 8.0; 97 µL) and liposome solution (3 µL; 50 µM phospholipid concentration during assay). The wells were allowed to equilibrate for 8 min at room temperature then antibiotic was added. The antibiotic concentration in each well was 375 nM.
(§8) Pyranine fluorescence was monitored for 30 min then Triton X-100 was added to a final concentration of 0.1% and pyranine fluorescence was monitored for an additional 5 min. The pyranine fluorescence signal was max-min normalized. […]
(§9) Fig. S7 Liposome permeabilization assays of nisin-like lantibiotics. (A) Scheme of liposome […]
(§10) low fluorescence. Fluorescence increases upon liposome permeabilization and pH increase . (B) Fraction of liposomes permeabilized by lantibiotics (375 nM). Liposomes were composed of DOPC with or without 0.1 mol% lipid II. Error bars represent the standard of deviation of three […]
(§11) (1 picture or pasted object on this page, not shown here)

[3] = Liposome permeabilization assay, liposomes with lipid II; format: biochemical; details: 375 nM lantibiotic; DOPC with 0.1 mol% lipid II, 50 µM phospholipid; pyranine fluorescence, 30 min, room temperature; three replicates; Figure S7B
Experimental: as §5, §6, §7, §8, §9, §10, §11

[4] = tested on: Coprococcus eutactus MSK.18.32; assay: MIC assay, anaerobic broth dilution; format: cell-based; details: SAR study blauticin versus nisin O, Figure 4
Excerpt: (§12) Antibiotic treatment may result in collateral damage to commensal bacteria in the human microbiome, leading to dysbiosis and susceptibility to various diseases.[44] How lantibiotics impact Gram-positive commensals from the human gut has remained unclear. Therefore, we performed antimicrobial activity tests of these lantibiotics against selected Gram-positive human gut commensals, most of which belong to the Lachnospiraceae family, one of the most abundant bacterial families in the human gut.[27] In general, human gut commensals were more susceptible to the set of investigated lantibiotics compared to pathogens (Figure 3).
as §1
(§13) All MIC assays were performed under anaerobic condition. […] Lantibiotics were dissolved in DPBS, and concentrations were determined by BCA assay (Pierce) according to the manufacturer’s protocol. […]

C. comes MSK.11.23 = assay: MIC assay, anaerobic broth dilution; format: cell-based, Coprococcus comes; details: Figure 3; anaerobic MIC assay
Excerpt: as §12, with “3). […]” for “3).”
Isolation of human gut commensal bacteria
Isolation and growth of commensal bacteria was done as previously reported.5 Briefly, fresh donor fecal samples were transferred into an anaerobic chamber (Coy Labs) within 1 h of collection. The anaerobic chamber was maintained using a gas mix consisting of 5% hydrogen, 5% carbon dioxide and 90% nitrogen, and hydrogen was maintained at ~3.0% using an anaerobic gas infuser. Fecal samples were resuspended in pre-reduced PBS and plated on Columbia blood agar or brain-heart infusion (BHI – Difco, BD) agar plates in three serial 10-fold dilutions and incubated at 37 °C for 48 – 96 h. Isolated colonies were re-streaked for purity onto Columbia blood agar and frozen in pre-reduced 10% glycerol in PBS.
as §2, §3, §4
Lantibiotic stock solutions were added to wells to reach desired final concentration, with 3-fold serial dilution across rows to create concentration gradients. Bacteria-inoculated wells without lantibiotics served as control. Plates were incubated at 37 °C for 48 h before being taken out of the anaerobic chamber for centrifugation. Plates were imaged with an iBright 1500 imager […]
pellets than those without lantibiotics were identified as MIC.

[5] = tested on: selected Gram-positive human gut commensals; assay: MIC assay against the panel of Gram-positive human gut commensals; format: cell-based; details: commensal panel, Figure 3F-M; anaerobic
Excerpt: as §12, §1, §13

Row | Substance | inhibitory activity against pathogens based on MIC (ranking in words) [1] | permeabilization of liposomes without lipid II compared to liposomes with lipid II (in words) [2] | permeabilization of lipid II-containing liposomes (in words) [3] | inhibition (MIC) of C. eutactus, comparison in words [4] | sensitivity of C. comes MSK.11.23 to the lantibiotic (in words) (C. comes MSK.11.23) | antimicrobial activity against human gut commensals (ranking in words) [5]
1 | MAKFDDFDLDVTKTAAGEGGVEPRITSKSLCTPGCVTGILMTCPVQTATCGCQITGK (also: bicyclic or more (positions not given here)) [blauticin, class I lantibiotic of Blautia producta SCSK, heterologously produced in E. coli in mixed dehydration states] | intermediate activities | decreased permeabilization activities | strongly induced permeabilization | lower MIC than nisin O | – | –
2 | MAKFDDFDLDVTKTAAQGGIEPKYKSKSVCTPGCPTGILMTCPLKTATCGCHITGK (also: bicyclic or more (positions not given here)) [Lan-Df, novel nisin-like class I lantibiotic from Dorea formicigenerans, close homologue of nisin O] | strongest inhibitory activities | decreased permeabilization activities | strongly induced permeabilization | – | relatively resistant | generally more effective in growth inhibition
3 | nisin O | nisin A and Lan-Df had the strongest inhibitory activities against pathogens based on their MIC, followed by nisin O | decreased permeabilization activities | strongly induced permeabilization | – | relatively resistant | –
